Results published in patent publication US9113629B2, “4-amino-6-(4-substituted-phenyl)-picolinates and 6-amino-2-(4-substituted-phenyl)-pyrimidine-4-carboxylates and their use as herbicides” (DOW AGROSCIENCES LLC, priority 2013, dated 2015).
Where two headings read alike, the source gives them in different places.

Assays:
[1] = system: Key Broadleaf Weed and Crop Species; test: Post-emergent Test II herbicidal activity (Table 5); type: in vivo; conditions: post-emergence, 336 h, post-emergent, 14 days after application; for pest or weed control at 66 g/ha: 66 g ai/ha; for pest or weed control at 132 g/ha: 132 g ai/ha
Procedure, shortened: (§1)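 Compounds, dissolved in 97:3 acetone/DMSO and diluted into an aqueous carrier containing crop oil concentrate and Triton X-155, are applied over the top of young plants at 187 L/ha. Injury is scored visually at 14 d, 0% meaning no effect and 100% complete kill.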

[2] = system: Key Grass and Sedge Weeds as well as Grass Crops; test: Post-emergent Test II herbicidal activity (Table 6); type: in vivo; conditions: post-emergence, 336 h; for pest or weed control at 66 g/ha: application rate 66 g ai/ha; for pest or weed control at 132 g/ha: application rate 132 g ai/ha
Procedure, shortened: as §1

[3] = ABUTH: velvetleaf (Abutilon theophrasti), read-out: Visual Growth Reduction (%) 14 Days After Application ABUTH
[4] = AMARE: redroot pigweed (Amaranthus retroflexus), read-out: Visual Growth Reduction (%) 14 Days After Application AMARE
[5] = BRSNN: oilseed-rape, canola (Brassica napus), read-out: Visual Growth Reduction (%) 14 Days After Application BRSNN
[6] = CHEAL: lambsquarters (Chenopodium album), read-out: Visual Growth Reduction (%) 14 Days After Application CHEAL
[7] = EPHHL: wild poinsettia (Euphorbia heterophylla), read-out: Visual Growth Reduction (%) 14 Days After Application EPHHL
[8] = HELAN: sunflower (Helianthus annuus), read-out: Visual Growth Reduction (%) 14 Days After Application HELAN
[9] = VIOTR: wild pansy (Viola tricolor), read-out: Visual Growth Reduction (%) 14 Days After Application VIOTR
[10] = Triticum aestivum, TRZSS (wheat), read-out: Visual Growth Reduction (%) 14 Days After Application, TRZSS
[11] = CYPES: yellow nutsedge (Cyperus esculentus), read-out: Visual Growth Reduction (%) 14 Days After Application, CYPES
[12] = DIGSA: crabgrass (Digitaria sanguinalis), read-out: Visual Growth Reduction (%) 14 Days After Application, DIGSA
[13] = ECHCG: barnyardgrass (Echinochloa crus-galli), read-out: Visual Growth Reduction (%) 14 Days After Application, ECHCG
[14] = ORYSA: rice (Oryza sativa), read-out: Visual Growth Reduction (%) 14 Days After Application, ORYSA
[15] = SETFA: giant foxtail (Setaria faberi), read-out: Visual Growth Reduction (%) 14 Days After Application, SETFA
[16] = SORVU: grain sorghum (Sorghum vulgare), read-out: Visual Growth Reduction (%) 14 Days After Application, SORVU
[17] = ZEAMX: maize, corn (Zea mays), read-out: Visual Growth Reduction (%) 14 Days After Application, ZEAMX

C#Cc1ccc(-c2nc(C(=O)OC)c(Cl)c(N)c2C)cc1 [Compound 40, methyl 4-amino-3-chloro-6-(4-ethynylphenyl)-5-methylpicolinate]
pest or weed control at 66 g/ha [1, 3]: 75 to 84%
pest or weed control at 132 g/ha [1, 3]: 95 to 100%
pest or weed control at 66 g/ha [1, 4]: 0 to 29%
pest or weed control at 132 g/ha [1, 4]: 45 to 59%
pest or weed control at 66 g/ha [1, 5]: 45 to 59%
pest or weed control at 132 g/ha [1, 5]: 45 to 59%
pest or weed control at 66 g/ha [1, 6]: 45 to 59%
pest or weed control at 132 g/ha [1, 6]: 60 to 74%
pest or weed control at 66 g/ha [1, 7]: 0 to 29%
pest or weed control at 132 g/ha [1, 7]: 0 to 29%
pest or weed control at 66 g/ha [1, 8]: 85 to 94%
pest or weed control at 132 g/ha [1, 8]: 95 to 100%
pest or weed control at 66 g/ha [1, 9]: 0 to 29%
pest or weed control at 132 g/ha [1, 9]: 0 to 29%
pest or weed control at 66 g/ha [2, 10]: 0 to 29%
pest or weed control at 132 g/ha [2, 10]: 0 to 29%
pest or weed control at 66 g/ha [2, 11]: 0 to 29%
pest or weed control at 132 g/ha [2, 11]: 0 to 29%
pest or weed control at 66 g/ha [2, 12]: 0 to 29%
pest or weed control at 132 g/ha [2, 12]: 0 to 29%
pest or weed control at 66 g/ha [2, 13]: 0 to 29%
pest or weed control at 132 g/ha [2, 13]: 0 to 29%
pest or weed control at 66 g/ha [2, 14]: 0 to 29%
pest or weed control at 132 g/ha [2, 14]: 0 to 29%
pest or weed control at 66 g/ha [2, 15]: 0 to 29%
pest or weed control at 132 g/ha [2, 15]: 0 to 29%
pest or weed control at 66 g/ha [2, 16]: 0 to 29%
pest or weed control at 132 g/ha [2, 16]: 0 to 29%
pest or weed control at 66 g/ha [2, 17]: 0 to 29%
pest or weed control at 132 g/ha [2, 17]: 0 to 29%
